According to patent publication US20230416228A1 (Forkhead Biotherapeutics, Inc., priority 2020, published 2023):
Counter-ions that a name gives are not always drawn.

Each compound was assayed against T1, human FOXO1 (constitutively active form Thr24Ala, Ser256Ala, Ser319Ala) (Homo sapiens, UniProt Q12778, S256A/S319A/T24A) (assay: FOXO1 inhibitor activity assay: cell-based transcriptional (luciferase) reporter assay in HEK293 cells). Conditions: HEK293 cells transfected with insulin response element firefly luciferase reporter, FOXO1 and Renilla luciferase; 10-point dose response 50 μM to 2.5 nM; 24 hours.
T1 construct: expressed in transfected cells; host or cells: HEK293 cells transfected with pcDNA3.1 plasmid
Procedure: The inhibitory activities of compounds on FOXO1 were determined by a cell-based transcriptional reporter assay. HEK293 cells were plated onto either 384-well poly-D-lysine coated plates (at 7500 cells per well) or 96-well plates (at 20000 cells per well) in low glucose Eagle's Minimum Essential Medium (EMEM) containing 1% fetal bovine serum, and incubated overnight at 37° C. and 5% CO2. […] Duplicate wells were included for each treatment condition. Cells were incubated for 24 hours at 37° C. and 5% CO2. Luciferase activities in each well were measured using Dual-Glog Luciferase Assay System (Promega) according to manufacturer's protocol and an Envision plate reader suitable for luminescence detection. Firefly luciferase activity was divided by Renilla luciferase activity to calculate a ratio for each well. The ratio in wells containing cells transfected with all 3 plasmids listed above and receiving only DMSO without compound addition was set to 100%. The ratio in wells containing cells transfected with plasmid (1), plasmid (3), and pcDNA3.1 containing the open reading frame of red fluorescent protein (instead of human FOXO1) and treated with DMSO was set to 0%. The ratio in each well receiving compound treatment was normalized and expressed as a percentage. Data were fit by 4-parameter logistic regression to determine IC50 and maximal inhibition values. Each compound was tested in a minimum of 2 independent experiments.

T1 sequence (Q12778 whole entry T24A/S256A/S319A): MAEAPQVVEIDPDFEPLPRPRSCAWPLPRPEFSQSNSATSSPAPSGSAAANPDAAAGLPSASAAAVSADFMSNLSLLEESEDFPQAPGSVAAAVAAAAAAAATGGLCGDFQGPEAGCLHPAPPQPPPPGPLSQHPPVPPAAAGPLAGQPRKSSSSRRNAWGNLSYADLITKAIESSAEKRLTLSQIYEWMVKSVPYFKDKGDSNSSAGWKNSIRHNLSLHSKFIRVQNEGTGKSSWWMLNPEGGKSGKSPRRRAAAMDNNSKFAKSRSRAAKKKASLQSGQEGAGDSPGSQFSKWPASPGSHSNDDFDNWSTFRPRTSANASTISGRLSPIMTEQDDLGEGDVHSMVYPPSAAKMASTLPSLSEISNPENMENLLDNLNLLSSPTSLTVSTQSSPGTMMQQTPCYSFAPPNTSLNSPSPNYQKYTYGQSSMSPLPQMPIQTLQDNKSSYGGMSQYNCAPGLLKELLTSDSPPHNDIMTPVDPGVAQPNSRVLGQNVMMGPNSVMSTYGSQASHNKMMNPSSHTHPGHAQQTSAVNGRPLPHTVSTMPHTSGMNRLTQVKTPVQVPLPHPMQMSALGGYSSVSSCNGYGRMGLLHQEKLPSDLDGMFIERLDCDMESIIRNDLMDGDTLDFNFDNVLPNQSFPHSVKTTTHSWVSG

`O=C(Nc1cc(-c2nc3cc(Br)ccc3[nH]2)[nH]n1)c1ccc(N2CCOCC2)nc1` [Compound A-91, N-[5-(5-bromo-1H-benzimidazol-2-yl)-1H-pyrazol-3-yl]-6-morpholino-pyridine-3-carboxamide] and `O=C(Nc1cc(-c2nc3cc(Br)ccc3[nH]2)[nH]n1)c1ccc(N2CCC(CO)CC2)nc1` [Compound A-89, N-[5-(5-bromo-1H-benzimidazol-2-yl)-1H-pyrazol-3-yl]-6-[4-(hydroxymethyl)-1-piperidyl]pyridine-3-carboxamide] cannot be ordered by IC50: over 1000 nM for the first, over 1000 nM for the second.

`COc1ccc(C(=O)Nc2cc(-c3nc4cc(OCCO)ccc4[nH]3)[nH]n2)cc1Cl` [Compound A-277, 3-chloro-N-[5-[5-(2-hydroxyethoxy)-1H-benzimidazol-2-yl]-1H-pyrazol-3-yl]-4-methoxy-benzamide] and `Cc1ccc2[nH]c(-c3cc(NC(=O)c4ccc(OCCO)c(Cl)c4)n[nH]3)nc2c1` [Compound A-115, 3-chloro-4-(2-hydroxyethoxy)-N-[5-(5-methyl-1H-benzimidazol-2-yl)-1H-pyrazol-3-yl]benzamide] cannot be ordered by IC50: under 100 nM for the first, under 100 nM for the second.

First: O=C(O)CCN1CCN(c2ccc(C(=O)Nc3cc(-c4nc5ccccc5[nH]4)[nH]n3)cc2)CC1 [Compound A-197, 3-[4-[4-[[5-(1H-benzimidazol-2-yl)-1H-pyrazol-3-yl]carbamoyl]phenyl]-piperazin-1-yl]propanoic acid hydrochloride]
Second: CN1CCN(c2ccc(C(=O)Nc3cc(-c4nc5ccccc5[nH]4)n(CCO)n3)cc2)CC1 [Compound A-201, N-[5-(1H-benzimidazol-2-yl)-1-(2-hydroxyethyl)pyrazol-3-yl]-4-(4-methylpiperazin-1-yl)benzamide]
The IC50 of the first is higher: over 1000 nM for the first, 300 to 1000 nM for the second. The second is the more potent here.

First: O=C(Nc1cc(-c2nc3cc(Cl)ccc3[nH]2)[nH]n1)c1ccc(N2CCC(CO)CC2)nc1 [Compound A-86, N-[5-(5-chloro-1H-benzimidazol-2-yl)-1H-pyrazol-3-yl]-6-[4-(hydroxymethyl)-1-piperidyl]pyridine-3-carboxamide]
Second: O=C(Nc1cc(-c2nc3cccc(F)c3[nH]2)[nH]n1)c1ccc(N2CCC(CO)CC2)nc1 [Compound A-83, N-[5-(7-fluoro-1H-benzimidazol-2-yl)-1H-pyrazol-3-yl]-6-[4-(hydroxymethyl)-1-piperidyl]pyridine-3-carboxamide]
The IC50 of the first is higher: over 1000 nM for the first, under 100 nM for the second.

First: O=C(Nc1cc(-c2nc3ccccc3[nH]2)[nH]n1)c1ccc(N2CCCC(CO)C2)nc1 (centres unmarked) [Compound A-68, N-[5-(1H-benzimidazol-2-yl)-1H-pyrazol-3-yl]-6-[3-(hydroxymethyl)-1-piperidyl]pyridine-3-carboxamide]
Second: CN1CCN(c2ccc(C(=O)Nc3cc(-c4nc5ccccc5[nH]4)[nH]n3)cn2)CC1=O [Compound A-243, N-[5-(1H-benzimidazol-2-yl)-1H-pyrazol-3-yl]-6-(4-methyl-3-oxo-piperazin-1-yl)pyridine-3-carboxamide]
The IC50 of the first is lower: under 100 nM for the first, 300 to 1000 nM for the second.

First: COCCn1nc(NC(=O)c2ccc(N3CCN(C)CC3)nc2)cc1-c1nc2ccccc2[nH]1 [Compound A-182, N-[5-(1H-benzimidazol-2-yl)-1-(2-methoxyethyl)pyrazol-3-yl]-6-(4-methyl-piperazin-1-yl)pyridine-3-carboxamide]
Second: COCCn1nc(NC(=O)c2ccc(N3CCN(C)CC3)cc2)cc1-c1nc2ccccc2[nH]1 [Compound A-185, N-[5-(1H-benzimidazol-2-yl)-1-(2-methoxyethyl)pyrazol-3-yl]-4-(4-methylpiperazin-1-yl)benzamide]
The IC50 of the first is lower: 300 to 1000 nM for the first, over 1000 nM for the second. The first is the more potent here.

First: COC1CN(c2ccc(C(=O)Nc3cc(-c4nc5ccccc5[nH]4)n(CCO)n3)cn2)C1 [Compound A-196, N-[5-(1H-benzimidazol-2-yl)-1-(2-hydroxyethyl)pyrazol-3-yl]-6-(3-methoxyazetidin-1-yl)pyridine-3-carboxamide]
Second: COC1CN(c2ccc(C(=O)Nc3cc(-c4nc5ccccc5[nH]4)n(C)n3)cn2)C1 [Compound A-97, N-[5-(1H-benzimidazol-2-yl)-1-methyl-pyrazol-3-yl]-6-(3-methoxyazetidin-1-yl)pyridine-3-carboxamide]
The IC50 of the first is higher: over 1000 nM for the first, 100 to 300 nM for the second.

First: CC(=O)N(C)C1CCN(c2ccc(C(=O)Nc3cc(-c4nc5ccccc5[nH]4)[nH]n3)cn2)CC1 [Compound A-170, 6-[4-[acetyl(methyl)amino]-1-piperidyl]-N-[5-(1H-benzimidazol-2-yl)-1H-pyrazol-3-yl]pyridine-3-carboxamide]
Second: O=C(Nc1cc(-c2nc3ccccc3[nH]2)[nH]n1)c1ccc(N2CCC(N3CCOCC3)CC2)nc1 [Compound A-172, N-[5-(1H-benzimidazol-2-yl)-1H-pyrazol-3-yl]-6-(4-morpholino-1-piperidyl)pyridine-3-carboxamide]
The IC50 of the first is higher: 100 to 300 nM for the first, under 100 nM for the second. The second is the more potent here.

Compared with `COc1cc(F)c2[nH]c(-c3cc(NC(=O)c4ccc(N5CCOC(CO)C5)nc4)nn3C)nc2c1` (centres unmarked) [Compound A-237, N-[5-(7-fluoro-5-methoxy-1H-benzimidazol-2-yl)-1-methyl-pyrazol-3-yl]-6-[2-(hydroxymethyl)morpholin-4-yl]pyridine-3-carboxamide], `Cc1nc(N2CCOC(CO)C2)ccc1C(=O)Nc1cc(-c2nc3ccccc3[nH]2)n(C)n1` (centres unmarked) [Compound A-262, N-[5-(1H-benzimidazol-2-yl)-1-methyl-pyrazol-3-yl]-6-[2-(hydroxy-methyl)morpholin-4-yl]-2-methyl-pyridine-3-carboxamide] is higher in IC50: under 100 nM for the first, 100 to 300 nM for the second. The first is the more potent here.

Compared with `CCOC(=O)COc1ccc(C(=O)Nc2cc(-c3nc4ccccc4[nH]3)[nH]n2)cn1` [Compound A-70, ethyl 2-[[5-[[5-(1H-benzimidazol-2-yl)-1H-pyrazol-3-yl]carbamoyl]-2-pyridyl]oxy]acetate], `O=C1CN(c2ccc(C(=O)Nc3cc(-c4nc5ccccc5[nH]4)[nH]n3)cn2)CCN1` [Compound A-69, N-[5-(1H-benzimidazol-2-yl)-1H-pyrazol-3-yl]-6-(3-oxopiperazin-1-yl)pyridine-3-carboxamide] is lower in IC50: over 1000 nM for the first, 300 to 1000 nM for the second. The second is the more potent here.

First: Cn1nc(NC(=O)c2ccc(N3CCNC(C)(C)C3)nc2)cc1-c1nc2ccccc2[nH]1 [Compound A-280, N-[5-(1H-benzimidazol-2-yl)-1-methyl-pyrazol-3-yl]-6-(3,3-dimethyl-piperazin-1-yl)pyridine-3-carboxamide]
Second: Cn1nc(NC(=O)c2ccc(N3CC4CC(C3)N4)nc2)cc1-c1nc2ccccc2[nH]1 [Compound A-284, N-[5-(1H-benzimidazol-2-yl)-1-methyl-pyrazol-3-yl]-6-(3,6-diazabicyclo[3.1.1]heptan-3-yl)pyridine-3-carboxamide]
The IC50 of the first is lower: under 100 nM for the first, 100 to 300 nM for the second.

Compared with `Cn1nc(NC(=O)c2ccc(N3CCC(N4CCOCC4)CC3)nc2)cc1-c1nc2cccc(F)c2[nH]1` [Compound A-173], `CCOC(=O)[C@@H]1CCCN1c1ccc(C(=O)Nc2cc(-c3nc4cccc(F)c4[nH]3)n(C)n2)cn1` [Compound A-147, ethyl (2S)-1-[5-[[5-(4-fluoro-1H-benzimidazol-2-yl)-1-methyl-pyrazol-3-yl]carbamoyl]-2-pyridyl]pyrrolidine-2-carboxylate] is higher in IC50: 100 to 300 nM for the first, over 1000 nM for the second. The first is the more potent here.

First: COc1ccc(Nc2nccc(-c3nc4ccccc4[nH]3)n2)cc1Cl [Compound A-92, 4-(1H-benzimidazol-2-yl)-N-(3-chloro-4-methoxy-phenyl)pyrimidin-2-amine]
Second: COc1ccc(C(=O)Nc2cc(-c3nc4ccccc4[nH]3)n(CCO)n2)cc1Cl [Compound A-195, N-[5-(1H-benzimidazol-2-yl)-1-(2-hydroxyethyl)pyrazol-3-yl]-3-chloro-4-methoxy-benzamide]
The IC50 of the first is higher: over 1000 nM for the first, 100 to 300 nM for the second.

First: COCCNc1ccc(C(=O)Nc2cc(-c3nc4ccccc4[nH]3)[nH]n2)cc1Cl [Compound A-39, N-[5-(1H-benzimidazol-2-yl)-1H-pyrazol-3-yl]-3-chloro-4-(2-methoxyethylamino)benzamide]
Second: O=C(Nc1cc(-c2nc3ccccc3[nH]2)[nH]n1)c1ccc(OCCN2CCOCC2)c(Cl)c1 [Compound A-33, N-[5-(1H-benzimidazol-2-yl)-1H-pyrazol-3-yl]-3-chloro-4-(2-morpholinoethoxy)benzamide]
The IC50 of the first is lower: under 100 nM for the first, 100 to 300 nM for the second. The first is the more potent here.

`COc1cc(F)c2[nH]c(-c3cc(NC(=O)c4ccc(N5CCC(OC)CC5)nc4)n[nH]3)nc2c1` [Compound A-193, N-[5-(7-fluoro-5-methoxy-1H-benzimidazol-2-yl)-1H-pyrazol-3-yl]-6-(4-methoxy-1-piperidyl)pyridine-3-carboxamide] and `COCCN1CCN(c2ccc(C(=O)Nc3cc(-c4nc5cc(OC)cc(F)c5[nH]4)[nH]n3)cn2)CC1` [Compound A-192, N-[5-(7-fluoro-5-methoxy-1H-benzimidazol-2-yl)-1H-pyrazol-3-yl]-6-[4-(2-methoxyethyl)piperazin-1-yl]pyridine-3-carboxamide] cannot be ordered by IC50: over 1000 nM for the first, over 1000 nM for the second.

First: CN1CCN(c2ccc(C(=O)Nc3nc(-c4nc5ccccc5[nH]4)n(C)n3)cc2)CC1 [Compound A-241, N-[5-(1H-benzimidazol-2-yl)-1-methyl-1,2,4-triazol-3-yl]-4-(4-methylpiperazin-1-yl)benzamide]
Second: COc1ccc2nc(-c3cc(NC(=O)c4ccc(OC)c(Cl)c4)n[nH]3)cn2c1 [Compound A-161, 3-chloro-4-methoxy-N-[5-(6-methoxyimidazo[1,2-a]pyridin-2-yl)-1H-pyrazol-3-yl]benzamide]
The IC50 of the first is higher: 300 to 1000 nM for the first, 100 to 300 nM for the second.
